In patent publication US11090307B2, “Treating male senescence” (National Institute of Biological Sciences, Beijing, priority 2017, dated 2021):

Assays:
[1] = test system: phospho-MLKL in the testes; assay: TSZ-induced necroptosis in testes of mice fed RIPA-56-containing chow; type: in vivo
Method: We therefore evaluated the effects of a newly-identified, highly-potent, and highly-specific RIP1 kinase inhibitor from our laboratory (henceforth ‘RIPA-56’)(Ren et al., 2017) by incorporating it into mouse food at 150 mg/kg and 300 mg/kg doses. We first tested the effect of RIPA-56 on necroptosis in testes by injecting TSZ into testes of 2-month old mice after feeding the mice with increasing concentrations of RIPA-56-containing chow for one week.

[2] = test system: 13-month old male wild type mice; assay: Long-term feeding of 13-month old male wild type mice with RIPA-56 chow for two months; type: in vivo
Method: We subsequently chose the 300 mg/kg dose to continuously feed 13-month old male wild type mice for two months to study the long-term effects of blocking necroptosis on testes. […] Additionally, the testosterone level of RIPA-56-treated mice remained high, while that of control mice decreased. […] Finally, the fertility rates of the RIPA-56-treated mice were much higher than those of control mice with 19 out of 25 mice on the RIPA-56 diet were fertile while only 6 out of 23 mice on normal diet produced progeny.

Compound: CCC(C)(C)C(=O)N(O)Cc1ccccc1 [RIPA-56]
- block of necroptosis in testes ([1]; 300 mg/kg dose in chow, one week, TSZ into testes): completely block necroptosis
- appearance of TSZ-induced phospho-MLKL in the testes ([1]; 2-month old mice, chow with increasing concentrations (150 mg/kg and 300 mg/kg) for one week, then TSZ into testes): blocked the appearance of TSZ-induced phospho-MLKL in the testes in a dose-dependent manner
- empty seminiferous tubules ([2]; 300 mg/kg in food, two months): hardly any seminiferous vesicles were empty
- fertility rate (fertile mice) ([2]; 300 mg/kg in food, two months): 19 out of 25
- gross male aging metrics (body weight, fat deposition, libido, fertility, muscle mass, prostate hyperplasia) ([2]; 300 mg/kg in food, two months): more youthful gross male aging metrics
- mass of seminal vesicles ([2]; 300 mg/kg in food, two months): around 1,000 milligrams
- testosterone level ([2]; 300 mg/kg in food, two months): remained high
- body weight ([2]; 300 mg/kg in food, two months, vs control chow diet): weighed less than mice fed with control chow diet
- age-associated weight gain ([2]; necroptosis blocked pharmaceutically): much less age-associated wright gain
